Measurements from ChEMBL document CHEMBL1146488, “Antineoplastic agents. 511. Direct phosphorylation of phenpanstatin and pancratistatin” (J Nat Prod, 2004).
≈ marks a conversion by molar mass, not a printed value.

Legend:
P388 = assay: Cytotoxicity against mouse P388 cells; assay type: functional; conditions: read-out: ED50 (the source's name)
BXPC-3 = assay: Cytotoxicity against human BxPC3 cells; assay type: functional
MCF7 = assay: Cytotoxicity against human MCF7 cells; assay type: functional
SF-268 = assay: Cytotoxicity against human SF268 cells; assay type: functional
NCI-H460 = assay: Cytotoxicity against human NCI-H460 cells; assay type: functional
KM-20L2 = assay: Cytotoxicity against human KM20L2 cells; assay type: functional
DU-145 = assay: Cytotoxicity against human DU145 cells; assay type: functional
[1] = Solubility in water; assay type: physicochemical

SMILES	EC50 (P388) [µg/mL]	GI50 (BXPC-3) [µg/mL]	GI50 (MCF7) [µg/mL]	GI50 (SF-268) [µg/mL]	GI50 (NCI-H460) [µg/mL]	GI50 (KM-20L2) [µg/mL]	GI50 (DU-145) [µg/mL]	solubility [1] [µg/mL]
O=C1N[C@H]2[C@H](O)[C@H](O)[C@@H](O)[C@H](O)[C@@H]2c2cc3c(c(OP(=O)([O-])[O-])c21)OCO3.[Na+].[Na+]	0.24	0.2	0.2	0.079	0.19	0.17	0.026	20
O=C1N[C@@H]2C(=C[C@H](O)[C@@H](O)[C@H]2O)c2cc3c(c(O)c21)OCO3 [NARCICLASINE]	0.013 (≈ 0.0423 µM)	0.0035 (≈ 0.0114 µM)	0.0032 (≈ 0.0104 µM)	0.0031 (≈ 0.0101 µM)	0.0084 (≈ 0.0273 µM)	0.0032 (≈ 0.0104 µM)	0.0032 (≈ 0.0104 µM)	
O=C1N[C@@H]2C(=C[C@H](O)[C@H]3OP(=O)([O-])O[C@H]32)c2cc3c(c(O)c21)OCO3.[Na+] [SODIUM NARCISTATIN]	0.012	0.069	0.059	0.047	0.058	0.06	0.031	
O=C1N[C@H]2[C@@H]3OP(=O)([O-])O[C@@H]3[C@@H](O)[C@H](O)[C@@H]2c2cc3c(c(O)c21)OCO3.[Na+]	3.33	3.3	2.9	2.9	3.8	3.7	2.3	
C=C[C@H]1CN2CC[C@H]1C[C@@H]2[C@@H](O)c1ccnc2ccc(OC)cc12.O=C1N[C@H]2[C@H](OP(=O)(O)O)[C@H](O)[C@@H](O)[C@H](O)[C@@H]2c2cc3c(c(O)c21)OCO3	0.21	0.34	0.38	0.27	0.36	0.23	0.2	
O=C1N[C@H]2[C@H](OP(=O)([O-])O)[C@H](O)[C@@H](O)[C@H](O)[C@@H]2c2cc3c(c(O)c21)OCO3.[Na+]	0.018	0.18	0.18	0.12	0.38	0.24	0.94	
O=C1N[C@H]2[C@H](OP(=O)([O-])[O-])[C@H](O)[C@@H](O)[C@H](O)[C@@H]2c2cc3c(c(O)c21)OCO3.[Ca+2]	0.21	0.25	0.36	0.26	0.27	0.23	0.12	
O=C1N[C@H]2[C@H](OP(=O)([O-])O)[C@H](O)[C@@H](O)[C@H](O)[C@@H]2c2cc3c(c(O)c21)OCO3.[K+]	0.025	0.45	0.46	0.39	0.4	0.3	0.22	
O=C1N[C@H]2[C@H](OP(=O)(O)O)[C@H](O)[C@@H](O)[C@H](O)[C@@H]2c2cc3c(c(O)c21)OCO3.c1c[nH]cn1	0.063	0.25	0.33	0.21	0.25	0.13	0.13	
O=C1N[C@H]2[C@H](O)[C@H](O)[C@@H](O)[C@H](O)[C@@H]2c2cc3c(c(O)c21)OCO3 [PANCRATISTATIN]	0.017 (≈ 0.0523 µM)	0.02 (≈ 0.0615 µM)	0.023 (≈ 0.0707 µM)	0.014 (≈ 0.043 µM)	0.032 (≈ 0.0984 µM)	0.025 (≈ 0.0769 µM)	0.015 (≈ 0.0461 µM)	53 (≈ 163 µM)
O=C(O[C@H]1[C@H](O)[C@H]2OP(=O)([O-])O[C@H]2[C@@H]2NC(=O)c3c(cc4c(c3O)OCO4)[C@H]21)c1ccccc1.[Na+]	0.061	0.25	0.041	0.17	0.029	0.13	0.13	
O=C(O[C@H]1[C@H](O)[C@@H](O)[C@@H](O)[C@@H]2NC(=O)c3c(cc4c(c3O)OCO4)[C@H]21)c1ccccc1 [PHENPANSTATIN]	0.0016 (≈ 0.00373 µM)	0.0019 (≈ 0.00442 µM)	0.00031 (≈ 0.000722 µM)	0.00055 (≈ 0.00128 µM)	0.0001 (≈ 0.000233 µM)	0.00037 (≈ 0.000862 µM)	0.00021 (≈ 0.000489 µM)	
C=C[C@H]1CN2CC[C@H]1C[C@H]2[C@H](O)c1ccnc2ccc(OC)cc12.O=C1N[C@H]2[C@H](OP(=O)(O)O)[C@H](O)[C@@H](O)[C@H](O)[C@@H]2c2cc3c(c(O)c21)OCO3	0.066	0.23	0.35	0.28	0.31	0.22	0.15	
O=C1N[C@H]2[C@H](OP(=O)([O-])[O-])[C@H](O)[C@@H](O)[C@H](O)[C@@H]2c2cc3c(c(O)c21)OCO3.[Mg+2]	0.02	0.4	0.44	0.36	0.42	0.36	0.22	
C1COCCN1.O=C1N[C@H]2[C@H](OP(=O)(O)O)[C@H](O)[C@@H](O)[C@H](O)[C@@H]2c2cc3c(c(O)c21)OCO3	0.27	0.29	0.4	0.38	0.46	0.37	0.18	
C1CNCCN1.O=C1N[C@H]2[C@H](OP(=O)(O)O)[C@H](O)[C@@H](O)[C@H](O)[C@@H]2c2cc3c(c(O)c21)OCO3	0.019	0.31	0.38	0.27	0.35	0.24	0.21	
O=C1N[C@H]2[C@H](OP(=O)([O-])O)[C@H](O)[C@@H](O)[C@H](O)[C@@H]2c2cc3c(c(O)c21)OCO3.[Li+]	0.036	0.3	0.39	0.28	0.35	0.25	0.2	
O=C1N[C@H]2[C@H](OP(=O)([O-])[O-])[C@H](O)[C@@H](O)[C@H](O)[C@@H]2c2cc3c(c(O)c21)OCO3.[Zn+2]	0.17	0.27	0.47	0.38	0.42	0.3	0.17	
O=C1N[C@H]2[C@H](OP(=O)(O)O)[C@H](O)[C@@H](O)[C@H](O)[C@@H]2c2cc3c(c(O)c21)OCO3	0.047 (≈ 0.116 µM)	0.36 (≈ 0.888 µM)	0.43 (≈ 1.06 µM)	0.35 (≈ 0.864 µM)	0.42 (≈ 1.04 µM)	0.33 (≈ 0.814 µM)	0.2 (≈ 0.494 µM)	
